This is an account of results in patent publication US9518051B2, “Pyrroloquinoline alkaloids as antimalarial agents and process for the preparation thereof” (Council of Scientific & Industrial Research, priority 2012, dated 2016).

Data set [1] deals with Plasmodium falciparum 3D7 (chloroquine sensitive strain). The data set can be described thus: Anti malarial activity in vitro on Plasmodium falciparum at erythrocyte stage. It is filed as cell-based. The note with it: compound in crude form. On the procedure:
In a preferred embodiment, the compound NCLite-M1 was tested for anti-malarial activity against a known parasite Plasmodium falciprum 3D7 was used, which is chloroquine sensitive strain and the results are tabulated herein.
This study was performed in vitro on Plasmodium falciparum at erythrocyte stage. The test protocol for testing antimalarial activity is from R. E. Desjardins, C. J. Canfield, J. D. Haynes and J. D. Chulay Antimicrob. Agents Chemother. 1979, 16, 710.
A known parasite 3D7 was used, which is Chloroquine sensitive strain. 2 mg of the compound NCLite-M1 which has a molecular weight of 326.35, was dissolved in 10 mL of EtOH and used as a stock. […] Further studies using highly pure compound and its soluble salts are planned.

As to `Cc1nc2cc(Cl)ccc2c2ccn(S(=O)(=O)c3ccccc3)c12` [Table 2, entry 2, 7-chloro-4-methyl-3-(phenylsulfonyl)-3H-pyrrolo[2,3-c]quinoline], the melting point is 178 to 180 °C.

The compound `N#Cc1ccc2[nH]c(-c3ccccc3)cc2c1` [Table 2, entry 6, 2-phenyl-1H-indole-5-carbonitrile] showed a melting point of 194 to 196 °C.

Regarding `O=c1c2ccccc2ncn1Cc1nc2ccccc2c2cc[nH]c12` [NCLite-M1, 3-((3H-pyrrolo[2,3-c]quinolin-4-yl)methyl)quinazolin-4(3H)-one], the “lowest concentration at which the compound is active” value in data set [1] (P. falciparum 3D7) was 2 µmol. In addition, the inhibition at 25 µM in data set [1] (Plasmodium falciparum, concentration 25 μM, P. falciparum 3D7, erythrocyte stage, read-out: % inhibition by NCLite-M1) is 19.5%. Also, in data set [1] (Plasmodium falciparum, concentration 50 μM, P. falciparum 3D7, erythrocyte stage, read-out: % inhibition by NCLite-M1), the inhibition at 50 µM is 77.2%. The inhibition at 75 µM in data set [1] (Plasmodium falciparum, concentration 75 μM, P. falciparum 3D7, erythrocyte stage, read-out: % inhibition by NCLite-M1) is 89.4%. The “% inhibition by NCLite-M1” value in data set [1] (concentration 2-5 μM, P. falciparum 3D7, erythrocyte stage) is listed as 17.6%.

As for `Cc1nc2ccccc2c2ccn(S(=O)(=O)c3ccccc3)c12` [compound 3, 4-Methyl-3-(phenylsulfonyl)-3H-pyrrolo[2,3-c]quinoline], the melting point lay within 143 to 145 °C.

In the case of `N#Cc1ccc2nc(-c3ccccc3)c3ccccc3c2c1` [Table 2, entry 5, 6-phenylphenanthridine-2-carbonitrile], the melting point is 233 to 235 °C.

Consider `Nc1ncnc2c1ncn2Cc1nc2ccccc2c2cc[nH]c12` [Aplidiopsamine A], for which the melting point lay within 229 to 231 °C.
